Experimental data taken from ChEMBL document CHEMBL1122017, “Synthesis and peripheral cardiovascular action of cis- and trans-2-(3,4-dimethoxybenzyl)cyclopentylamine hydrochlorides” (1982).

Experiments:
Canis familiaris [1] = assay: Mean percent decrease in mean blood pressure was determined at the dose of 15 umol/kg (2 minutes after injection) in mongrel dogs; format: functional, Canis lupus familiaris
Canis familiaris [2] = assay: Mean percent decrease in mean blood pressure was determined at the dose of 15 umol/kg in mongrel dogs; format: functional, Canis lupus familiaris

Compound | Decrease in blood pressure (Canis familiaris [1]) [%] | Decrease in blood pressure (Canis familiaris [2]) [%]
COc1ccc(C[C@@H]2CCC[C@H]2N)cc1OC | 7.5 | 25.1
COc1ccc(C[C@@H]2CCC[C@@H]2N)cc1OC | 37.9 | 30
